Read-outs that look alike come from different tables or passages of the source.
System: 48-hour salivary biofilm
Experiment: Biofilm disruption screening assay: 48-hour salivary biofilm on polystyrene peg plate, ATP bioluminescence of bacteria remaining
Format: cell-based
Settings: for log RLU compound: treated twenty minutes, N=8
Experimental: (§1) A 48-hour salivary biofilm was grown on a polystyrene peg plate substrate (96 pegs, N=8 per test group). The pegs were subsequently treated for twenty minutes with each of the long chain alcohols formulations described above, as well as the negative control. After treatment, viable bacteria remaining on the substrate were removed by sonication using a Ultrasonic processor XL by Misonix (Farmingdale, N.Y.), lysed with Celsis Luminex (Celsis Rapid Detection Rapiscreen (Celsis International PLC, Chicago)) and ATP from the bacteria were measured using a bioluminescence marker Celsis LuminATE (Celsis Rapid Detection Rapiscreen (Celsis International PLC, Chicago)). Data was reported in log RLU (relative light units), where decreasing log RLUs indicates fewer bacteria remaining on the substrate and in M-factor units where M-factor is the difference between the log RLU values of the compound tested and the negative control.
as §1, with “marker.” for “marker”
To determine the concentration dependence of biofilm disruptor activity, a series of formulations was prepared with cis-2-nonen-1-ol concentration ranging from 0.0005% to 0.1%. These formulations were tested against the negative control in the biofilm disruption screening assay described in Examples 1 and 2. Data was reported in log RLU (relative light units) where decreasing log RLUs indicates fewer bacteria remaining on the substrate and in M-factor units where M-factor is the difference between the log RLU values of the compound tested and the negative control. […]

[1] = 20 min, alcohol 0.05% (w/v), twenty minutes, difference between log RLU of compound and negative control, read-out: M-factor
[2] = unsaturated long chain alcohol 0.05% (w/v) in water/ethanol/Pluronic F-127, decreasing log RLU = fewer bacteria remaining
[3] = 20 min, aldehyde 0.05% (w/v), twenty minutes, difference between log RLU of compound and negative control, read-out: M-factor
[4] = unsaturated long chain aldehyde 0.05% (w/v) in water/ethanol/Pluronic F-127

Row | Compound | log reduction at 0.05 % [1] | log RLU compound [2] | log reduction at 0.05 % [3] | log RLU compound [4] | also measured
1 | CCCCC/C=C\CCCO [cis-4-decen-1-ol] | 0.62 | 4.71 log RLU | – | – | –
2 | CCCC/C=C/C=O [trans-2-heptenal] | – | – | 0.06 | 5.52 log RLU | –
3 | CCCCCCCC/C=C/CO [trans-2-undecen-1-ol] | 0.56 | 4.72 log RLU | – | – | –
4 | CCCCCCC/C=C/CO [trans-2-decen-1-ol] | 1.45 | 4.13 log RLU | – | – | –
5 | CCC/C=C/C=O [trans-2-hexenal] | – | – | 0.19 | 5.39 log RLU | –
6 | C=CC(O)CCCCC (stereo not drawn) [1-octen-3-ol] | 0.33 | 4.99 log RLU | – | – | –
7 | CCCCC/C=C/C=O [trans-2-octenal] | – | – | 0.32 | 5.26 log RLU | –
8 | CCCCCC/C=C/C=O [trans-2-nonenal] | – | – | 0.92 | 4.66 log RLU | –
9 | C=CCCCCCCCCO [9-decen-1-ol] | 0.97 | 4.35 log RLU | – | – | –
10 | CC/C=C\CCCCO [cis-5-octen-1-ol] | 0.31 | 5.01 log RLU | – | – | –
11 | CCCCCC/C=C\CO [cis-2-nonen-1-ol] | 0.76 | 4.57 log RLU | – | – | log reduction at 0.1 % (20 min, formulation A, cis-2-nonen-1-ol 0.1% (w/v), vs negative control log RLU 5.63, read-out: M-factor): 0.82; log reduction at 0.05 % (20 min, formulation B, cis-2-nonen-1-ol 0.05% (w/v), vs negative control log RLU 5.63, read-out: M-factor): 0.82; log reduction at 0.025 % (20 min, formulation C, cis-2-nonen-1-ol 0.025% (w/v), vs negative control log RLU 5.63, read-out: M-factor): 0.35; log reduction at 0.01 % (20 min, formulation D, cis-2-nonen-1-ol 0.01% (w/v), vs negative control log RLU 5.63, read-out: M-factor): 0.04; log reduction at 0.005 % (20 min, formulation E, cis-2-nonen-1-ol 0.005% (w/v), vs negative control log RLU 5.63, read-out: M-factor): -0.06; log reduction at 0.001 % (20 min, formulation F, cis-2-nonen-1-ol 0.001% (w/v), vs negative control log RLU 5.63, read-out: M-factor): -0.07; log reduction at 0.0005 % (20 min, formulation G, cis-2-nonen-1-ol 0.0005% (w/v), vs negative control log RLU 5.63, read-out: M-factor): -0.09; log RLU (formulation A, cis-2-nonen-1-ol 0.1% (w/v)): 4.81 log RLU; log RLU (formulation B, cis-2-nonen-1-ol 0.05% (w/v)): 4.82 log RLU; log RLU (formulation C, cis-2-nonen-1-ol 0.025% (w/v)): 5.28 log RLU; log RLU (formulation D, cis-2-nonen-1-ol 0.01% (w/v)): 5.59 log RLU; log RLU (formulation E, cis-2-nonen-1-ol 0.005% (w/v)): 5.69 log RLU; log RLU (formulation F, cis-2-nonen-1-ol 0.001% (w/v)): 5.70 log RLU; log RLU (formulation G, cis-2-nonen-1-ol 0.0005% (w/v)): 5.72 log RLU
12 | CCC/C=C\CCO [cis-3-hepten-1-ol] | 0.25 | 5.07 log RLU | – | – | –
13 | CC(C)=CCCC(C)C=O (stereo not drawn) [2,6-dimethyl-5-hepten-1-al] | – | – | 0.21 | 5.07 log RLU | –
14 | CCCCC/C=C/CO [trans-2-octen-1-ol] | 0.69 | 4.89 log RLU | – | – | –
15 | CCC/C=C\CO [cis-2-hexen-1-ol] | 0.11 | 5.21 log RLU | – | – | –
16 | C=CC(O)CCCCCCC (stereo not drawn) [1-decen-3-ol] | 0.86 | 4.46 log RLU | – | – | –
17 | CCCCC/C=C\CCO [cis-3-nonen-1-ol] | 0.76 | 4.56 log RLU | – | – | –
18 | CC/C=C\CCCCC=O [cis-6-nonenal] | – | – | 0.44 | 4.84 log RLU | –
19 | CCCCCCCCC/C=C/CO [trans-2-dodecen-1-ol] | 0.88 | 4.44 log RLU | – | – | –
20 | CCC/C=C/CO [trans-2-hexen-1-ol] | 0.12 | 5.20 log RLU | – | – | –
21 | CCCCCCCCC/C=C/C=O [trans-2-dodecenal] | – | – | 1 | 4.58 log RLU | –
22 | CCCCC/C=C\CCC=O [cis-4-decenal] | – | – | 0.99 | 4.59 log RLU | –
23 | CCCCCCC/C=C/C=O [trans-2-decenal] | – | – | 0.95 | 4.63 log RLU | –
24 | CC/C=C\CCCCCO [cis-6-nonen-1-ol] | 0.72 | 4.60 log RLU | – | – | –
25 | CCCCCC/C=C/CO [trans-2-nonen-1-ol] | 0.45 | 4.83 log RLU | – | – | –
26 | CC/C=C\CCC=O [cis-4-hepten-1-al] | – | – | -0.04 | 5.14 log RLU | –
27 | CC/C=C\CCCCCC=O [cis-7-decenal] | – | – | 0.33 | 5.25 log RLU | –
28 | CC/C=C\CCO [cis-3-hexen-1-ol] | 0.06 | 5.22 log RLU | – | – | –
29 | CCCCCCCC/C=C/C=O [trans-2-undecenal] | – | – | 0.83 | 4.49 log RLU | –

— US9591852B2, “Biofilm disruptive compositions” (McNeil-PPC, Inc., priority 2009, dated 2017)
